These results are taken from ChEMBL document CHEMBL4837181 (Eur J Med Chem, 2020).

Each structure is given as a SMILES string. Where a SMILES comes first, the peptide text is derived from it. [ ]: non-standard residue; d: D form. dTrp(1-Me) = Cn1cc(C[C@@H](N)C(=O)O)c2ccccc21

Data set [1] can be described thus: Change in Cmax in rat at 37 umol/kg, po measured upto 72 hrs by LC-MS/MS analysis. The conditions noted are these: in vivo, at 37 µmol/kg. It counts as ADME, organism-based.
A short description of data set [2]: Change in AUC (infinity) in rat at 37 umol/kg, po measured upto 72 hrs by LC-MS/MS analysis. The class given is ADME, organism-based. The settings on record: in vivo, at 37 µmol/kg.

As for `Cn1cc(C[C@@H](NC(=O)[C@@H](N)CCCCN)C(=O)O)c2ccccc21`, the Activity in data set [1] is -17%; in data set [2], -13%.

As for `CCOC(=O)[C@@H](Cc1cn(C)c2ccccc12)NC(=O)[C@@H](N)CC(C)C.CS(=O)(=O)O`, the Activity in data set [1] is given as 111%; in data set [2], 127%.

With `CCOC(=O)[C@@H](Cc1cn(C)c2ccccc12)NC(=O)[C@@H](N)CCC(N)=O`, the Activity in data set [1] was 5%; in data set [2] it was -16%.

Take `Cn1cc(C[C@@H](NC(=O)[C@@H](N)CCCCN)C(=O)O)c2ccccc21.O=P(O)(O)O`: the Activity in data set [1] is recorded as 4%; in data set [2], -17%.

Regarding `CCOC(=O)[C@@H](Cc1cn(C)c2ccccc12)NC(=O)[C@@H](N)CC(C)C.O=S(=O)(O)O`, the Activity in data set [1] is -23%; in data set [2], -5%.

With `Cn1cc(C[C@@H](N)C(=O)OCC(O)CO)c2ccccc21.O=S(=O)(O)O` (stereo partly drawn), the figures for the Activity in data set [1] and in data set [2] were 2% and 21%, respectively.

Regarding `CCOC(=O)[C@@H](Cc1cn(C)c2ccccc12)NC(=O)[C@@H](N)CC(C)C.O=S(=O)(O)c1ccccc1`, the Activity was determined as 29% in data set [1] and 45% in data set [2].

Turning to `Cn1cc(C[C@@H](N)C(=O)OCC2CCNCC2)c2ccccc21.O=P(O)(O)O`, the Activity in data set [1] was -79%; in data set [2], -64%.

In the case of `CS(=O)(=O)O.Cn1cc(C[C@@H](N)C(=O)OCC(O)CO)c2ccccc21` (stereo partly drawn), the Activity in data set [1] and in data set [2] was -27% in each case.

Turning to `Cn1cc(C[C@@H](NC(=O)[C@@H](N)CCCCN)C(=O)O)c2ccccc21.O=S(=O)(O)O`, the Activity in data set [1] is -4%; in data set [2] it was 10%.

For the compound `CCOC(=O)[C@@H](Cc1cn(C)c2ccccc12)NC(=O)[C@@H](N)CCC(N)=O.CS(=O)(=O)O`, the Activity in data set [1] was 4%; in data set [2], -12%.

As to `CCOC(=O)[C@@H](Cc1cn(C)c2ccccc12)NC(=O)[C@@H](N)CCC(N)=O.O=P(O)(O)O`, the Activity in data set [1] is given as -32%; in data set [2], -28%.

Regarding `Cn1cc(C[C@@H](NC(=O)CN)C(=O)O)c2ccccc21.O=P(O)(O)O` (H-Gly-[dTrp(1-Me)]-OH), the Activity was -3% in data set [1] and 3% in data set [2].

Turning to `CCOC(=O)[C@@H](Cc1cn(C)c2ccccc12)NC(=O)[C@@H](N)CCC(N)=O.O=S(=O)(O)O`, the Activity is 20% in data set [1] and -20% in data set [2].
